From ChEMBL document CHEMBL1124228, “Synthesis of (aryloxy)alkylamines. 1. Novel antisecretory agents with H+K+-ATPase inhibitory activity” (J Med Chem, 1988)

Assays:
[1] = test system: Rattus norvegicus; assay: Percent inhibition of total acid secretion in pylorus-ligated rats at an id dose of 20 mg/kg; format: functional; settings: route intraduodenal
[2] = biological target: T1, Potassium-transporting ATPase (Homo sapiens, UniProt P20648); assay: Antisecretory activity evaluated by the inhibition of 14C -AP uptake in isolated rabbit parietal cells stimulated by exogenous histamine; format: functional, Oryctolagus cuniculus
[3] = biological target: T1, Potassium-transporting ATPase; assay: (§1) Antisecretory activity evaluated by the inhibition of 14C -AP uptake in isolated rabbit parietal cells stimulated by dibutyryl cyclic adenosine 3', 5' -monophosphate (dcAMP); format: functional, Oryctolagus cuniculus
[4] = test system: Rattus norvegicus; assay: Percent inhibition of total acid secretion in pylorus-ligated rats at an id dose of 40 mg/kg; format: functional; settings: route intraduodenal
[5] = test system: Rattus norvegicus; assay: Effective dose required for the inhibition of total acid secretion in pylorus-ligated rats at 20 mg/kg; format: functional
[6] = biological target: T2, Potassium-transporting ATPase (Homo sapiens, UniProt P20648+P51164); assay: as §1; format: functional, Oryctolagus cuniculus; settings: target entry is the homologue from another species
T2 sequence (P20648 whole entry): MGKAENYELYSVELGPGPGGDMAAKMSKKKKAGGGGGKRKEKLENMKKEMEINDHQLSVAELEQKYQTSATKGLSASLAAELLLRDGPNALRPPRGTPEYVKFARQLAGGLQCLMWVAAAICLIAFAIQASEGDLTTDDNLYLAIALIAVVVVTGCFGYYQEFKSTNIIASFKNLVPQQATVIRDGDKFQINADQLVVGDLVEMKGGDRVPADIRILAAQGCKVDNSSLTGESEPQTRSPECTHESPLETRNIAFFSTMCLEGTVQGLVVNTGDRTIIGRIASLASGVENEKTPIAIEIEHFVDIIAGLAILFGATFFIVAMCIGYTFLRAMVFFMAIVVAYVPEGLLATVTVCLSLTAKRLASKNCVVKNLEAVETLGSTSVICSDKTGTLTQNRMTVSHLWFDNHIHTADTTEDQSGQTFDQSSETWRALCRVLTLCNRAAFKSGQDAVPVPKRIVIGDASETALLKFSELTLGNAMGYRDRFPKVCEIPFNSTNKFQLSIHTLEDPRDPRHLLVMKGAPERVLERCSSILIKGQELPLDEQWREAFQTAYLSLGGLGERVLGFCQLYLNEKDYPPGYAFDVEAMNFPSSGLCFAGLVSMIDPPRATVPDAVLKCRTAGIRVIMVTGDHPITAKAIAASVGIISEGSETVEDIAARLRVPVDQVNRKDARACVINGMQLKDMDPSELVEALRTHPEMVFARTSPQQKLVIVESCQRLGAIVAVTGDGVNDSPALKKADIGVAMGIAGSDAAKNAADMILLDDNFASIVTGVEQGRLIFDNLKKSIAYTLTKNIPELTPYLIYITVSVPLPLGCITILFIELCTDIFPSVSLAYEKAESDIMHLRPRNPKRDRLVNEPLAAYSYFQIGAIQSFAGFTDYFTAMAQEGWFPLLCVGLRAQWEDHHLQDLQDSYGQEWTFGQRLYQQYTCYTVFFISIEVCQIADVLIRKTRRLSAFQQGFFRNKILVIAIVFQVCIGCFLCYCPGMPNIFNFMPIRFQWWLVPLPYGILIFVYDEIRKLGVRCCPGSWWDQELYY
T2 sequence (P51164 whole entry): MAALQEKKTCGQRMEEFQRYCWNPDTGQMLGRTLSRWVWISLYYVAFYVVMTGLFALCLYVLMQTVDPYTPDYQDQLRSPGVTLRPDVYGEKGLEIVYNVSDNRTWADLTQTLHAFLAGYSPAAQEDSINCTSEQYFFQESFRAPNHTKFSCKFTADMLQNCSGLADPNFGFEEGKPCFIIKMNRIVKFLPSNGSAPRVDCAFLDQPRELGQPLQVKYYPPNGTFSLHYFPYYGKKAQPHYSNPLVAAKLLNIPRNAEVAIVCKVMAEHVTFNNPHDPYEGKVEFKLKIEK

[7] = species on record: Rattus norvegicus; assay: Effective dose required for the inhibition of total acid secretion in pylorus-ligated rats; format: functional
[8] = test system: Rattus norvegicus; assay: Effective dose required for the inhibition of total acid secretion in pylorus-ligated rats at 40 mg/kg; format: functional
[9] = biological target: T2, Potassium-transporting ATPase; assay: Evaluated for the inhibition of H+/K+ ATPase enzyme from fundic mucosa of white rabbits at 100 uM; format: protein-complex assay; settings: Oryctolagus cuniculus, target entry is the homologue from another species
[10] = test system: Rattus norvegicus; assay: Percent inhibition of total acid secretion in pylorus-ligated rats at an id dose of 10 mg/kg; format: functional; settings: route intraduodenal
[11] = target entry is the homologue from another species

Row | Compound | inhibition in vivo at 20 mg/kg [1] [%] | IC50 [2, 11] [nM] | IC50 [3, 11] [nM] | also measured
1 | CCCCN(CCCC)CCCOc1ccc(-c2csc(-c3cccnc3)n2)cc1 | 19 | 1650 | 880 | –
2 | C(=C\c1nc2ccccc2s1)/c1ccc(OCCCn2ccnc2)cc1 | 22 | 130 | 340 | –
3 | c1ccc(-c2nc(-c3ccc(OCCCCn4ccnc4)cc3)cs2)cc1 | – | 820 | 310 | inhibition in vivo at 40 mg/kg [4]: 31%
4 | CCN(CC)CCCOc1ccc(-c2csc(-c3ccccc3)n2)cc1 | – | 120 | 90 | inhibition in vivo at 40 mg/kg [4]: 82%
5 | CNC(=C[N+](=O)[O-])NCCSCc1ccc(CN(C)C)o1 [RANITIDINE] | – | 40 | – | ED50 [5]: 9.1 mg/kg
6 | CCCCN(CCCC)CCCOc1ccc(-c2csc(-c3ccc(C(F)(F)F)cc3)n2)cc1 | – | 2900 | 2000 | inhibition in vivo at 40 mg/kg [4]: 40%
7 | CCCCN(CCCC)CCCOc1ccc(/C=C/c2nc3ccc(OC)cc3o2)cc1 | – | 80 | 50 | inhibition in vivo at 40 mg/kg [4]: 64%
8 | CCCCN(CCCC)CCCCCOc1ccc(-c2csc(-c3ccccc3)n2)cc1 | 54 | 490 | 860 | –
9 | CCCCN(CCCC)CCCOc1ccc(/C=C/c2nc3ccc(OC)cc3s2)cc1 | 31 | 260 | 460 | –
10 | C(=C\c1nc2ccccc2o1)/c1ccc(OCCCCCn2ccnc2)cc1 | 45 | 280 | 230 | –
11 | CCN(CC)CCCCOc1ccc(/C=C/c2nc3ccccc3o2)cc1 | 31 | 80 | 120 | –
12 | CCCCN(CCCC)CCOc1ccc(/C=C/c2nc3ccccc3s2)cc1 | – | 430 | 600 | inhibition in vivo at 20 mg/kg [5]: 14%
13 | c1cncc(-c2nc(-c3ccc(OCCCn4ccnc4)cc3)cs2)c1 | 53 | 3300 | 3000 | –
14 | CCCCN(CCCC)CCOc1ccc(-c2csc(-c3ccccc3)n2)cc1 | 41 | 310 | 350 | –
15 | CCCCN(CCCC)CCCOc1ccc(/C=C/c2nc3ccccc3[nH]2)cc1 | 2.8 | 2300 | 1500 | –
16 | CCCCN(CCCC)CCCCOc1ccc(/C=C/c2nc3ccccc3o2)cc1 | – | 180 | – | IC50 [6]: < 10000 nM; inhibition in vivo at 40 mg/kg [4]: 14%
17 | CCCN(CCC)CCCOc1ccc(-c2csc(-c3ccccc3)n2)cc1 | – | 230 | 180 | inhibition in vivo at 40 mg/kg [4]: 94%
18 | C(=C\c1nc2ccccc2o1)/c1ccc(OCCCCN2CCCCC2)cc1 | 42 | 170 | 330 | –
19 | CCCCN(CCCC)CCCOc1ccc(/C=C/c2nc3ccccc3s2)cc1 | 40 | 250 | 260 | –

Row | Compound | inhibition in vivo at 20 mg/kg [1] [%] | IC50 [2, 11] [nM] | IC50 [3, 11] [nM] | also measured
20 | C(=C\c1nc2ccccc2o1)/c1ccc(OCCCCn2ccnc2)cc1 | 14 | 270 | 330 | –
21 | CCCN(CCC)CCCOc1ccc(/C=C/c2nc3ccccc3o2)cc1 | 77 | 220 | 350 | –
22 | CCN(CC)CCCOc1ccc(/C=C/c2nc3ccccc3o2)cc1 | – | 320 | 980 | inhibition in vivo at 40 mg/kg [4]: 54%
23 | CCCCN(CCCC)CCCOc1ccc(/C=C/c2nc3cc(C)ccc3o2)cc1 | – | 260 | 340 | inhibition in vivo at 40 mg/kg [4]: 88%
24 | CCCCN(CCCC)CCCOc1ccc(-c2csc(C)n2)cc1 | 8 | 1500 | 8400 | –
25 | CCCCN(CCCC)CCCOc1ccc(/C=C/c2nc3ccccc3n2C)cc1 | 1.6 | 800 | 2600 | –
26 | CCCN(CCC)CCCOc1ccc(/C=C/c2nc3ccccc3s2)cc1 | – | 210 | 140 | inhibition in vivo at 20 mg/kg [5]: 42%
27 | Cl.O.c1ccc(-c2nc(-c3ccc(OCCCn4ccnc4)cc3)cs2)cc1 | – | 80 | 20 | ED50 [5]: 5.1 mg/kg; inhibition in vivo at 20 mg/kg [5]: 91%
28 | CCCCN(CCCC)CCCOc1ccc(-c2csc(-c3ccccc3)n2)cc1.Cl | – | 450 | 420 | ED50 [5]: 17 mg/kg; inhibition in vivo at 20 mg/kg [5]: 75%
29 | CCCCN(CCCC)CCCOc1ccc(-c2nc3ccccc3[nH]2)cc1 | – | 1800 | 1200 | inhibition in vivo at 40 mg/kg [4]: 24%
30 | CCCCN(CCCC)CCCOc1ccc(/C=C/c2nc3cc(C)ccc3s2)cc1 | 14 | 290 | 530 | –
31 | CN/C(=N\CCSCc1nc[nH]c1C)NC#N [CIMETIDINE] | – | – | – | IC50 [2]: 820 nM; IC50 [3]: > 100000 nM; ED50 [7]: 32 mg/kg
32 | CCCCN(CCCC)CCCOc1ccc(-c2csc(-c3ccc(C)cc3)n2)cc1 | 41 | 1500 | 3000 | –
33 | FC(F)(F)c1ccc(-c2nc(-c3ccc(OCCCn4ccnc4)cc3)cs2)cc1 | 27 | 370 | 620 | –
34 | C(=C\c1nc2ccccc2o1)/c1ccc(OCCCCN2CCCC2)cc1 | – | 170 | 240 | inhibition in vivo at 40 mg/kg [4]: 24%
35 | CCCN(CCC)CCCOc1ccc(-c2nc3ccccc3s2)cc1 | – | 210 | 140 | inhibition in vivo at 40 mg/kg [8]: 42%
36 | CCN(CC)CCCOc1ccc(/C=C/c2nc3ccccc3s2)cc1 | – | 370 | 150 | inhibition in vivo at 40 mg/kg [4]: 71%
37 | C(=C\c1nc2ccccc2s1)/c1ccc(OCCCN2CCCCC2)cc1 | 32 | 180 | 210 | –
38 | CCCCN(CCCC)CCCOc1ccc(-c2nc(-c3ccccc3)sc2C)cc1 | – | 270 | 230 | inhibition [9]: 65%; inhibition in vivo at 20 mg/kg [5]: 36%

Row | Compound | inhibition in vivo at 20 mg/kg [1] [%] | IC50 [2, 11] [nM] | IC50 [3, 11] [nM] | also measured
39 | c1ccc(-c2nc(-c3ccc(OCCCN4CCCC4)cc3)cs2)cc1 | 36 | 390 | – | IC50 [6]: < 10000 nM
40 | C(=C\c1nc2ccccc2s1)/c1ccc(OCCCCn2ccnc2)cc1 | – | 200 | 260 | inhibition in vivo at 40 mg/kg [4]: 17%
41 | CCCCN(CCCC)CCCOc1ccc(-c2csc(-c3ccc(OC)cc3)n2)cc1 | 4 | 480 | 230 | –
42 | CCCCN(CCCC)CCCOc1ccc(/C=C/c2nc3ccccc3o2)cc1 | – | 150 | 150 | inhibition in vivo at 40 mg/kg [4]: 96%
43 | CCCCN(CCCC)CCCOc1ccc(-c2nc3ccccc3s2)cc1 | – | 250 | 2600 | –
44 | CCCCN(CCCC)CCCOc1ccc(-c2nc(-c3ccccc3)sc2CC)cc1 | – | 340 | 240 | –
45 | C(=C\c1nc2ccccc2o1)/c1ccc(OCCCn2ccnc2)cc1 | – | 290 | 250 | inhibition in vivo at 20 mg/kg [5]: 26%
46 | CCCCN(CCCC)CCCCOc1ccc(-c2csc(-c3ccccc3)n2)cc1 | 56 | 130 | 120 | –
47 | C(=C\c1nc2ccccc2s1)/c1ccc(OCCCCN2CCCC2)cc1 | 20 | 160 | 260 | –
48 | CCCCN(CCCC)CCCOc1ccc(/C=C/c2nc3cc(Cl)ccc3s2)cc1 | 26 | 400 | 500 | –
49 | CCCCN(CCCC)CCCOc1ccc(-c2csc(-c3cc(OC)cc(OC)c3)n2)cc1 | 17 | 260 | 540 | –
50 | CCN(CC)CCCCOc1ccc(/C=C/c2nc3ccccc3s2)cc1 | 52 | 180 | 350 | –
51 | c1ccc(-c2nc(-c3ccc(OCCCN4CCCCC4)cc3)cs2)cc1 | 46 | 110 | 50 | –
52 | c1ccc(-c2nc(-c3ccc(OCCCn4ccnn4)cc3)cs2)cc1 | – | 10000 | – | inhibition in vivo at 10 mg/kg [10]: 72%
53 | CCCN(CCC)CCCCOc1ccc(/C=C/c2nc3ccccc3o2)cc1.Cl | 90 | 390 | 110 | ED50 [7]: 11.5 mg/kg
54 | CCCCN(CCCC)CCOc1ccc(/C=C/c2nc3ccccc3o2)cc1 | 43 | 260 | 540 | –
55 | COc1ccc2[nH]c([S+]([O-])Cc3ncc(C)c(OC)c3C)nc2c1 (stereo not given) [OMEPRAZOLE] | – | – | – | ED50 [5]: 7.1 mg/kg
56 | CCCCN(CCCC)CCCOc1ccc(-c2csc(-c3ccc(Cl)cc3)n2)cc1 | 40 | 2100 | 1800 | –
57 | CCCN(CCC)CCCCOc1ccc(/C=C/c2nc3ccccc3s2)cc1.Cl.O | – | 30 | 120 | ED50 [7]: 13.6 mg/kg; inhibition in vivo at 40 mg/kg [4]: 93%
